Values of other authors in patent publication US20040077591A1, “Histone deacetylase inhibitors for the treatment of multiple sclerosis, amyotrophic lateral sclerosis and Alzheimer's Disease” (The Brigham and Women's Hospital, Inc., priority 2002, published 2004).

Columns and labels:
[1] = system: SMA lymphoid cell lines; conditions: cited from earlier work
[2] = system: SMA-like mice; conditions: cited from earlier work

CCCC(=O)[O-].[Na+] [sodium butyrate]
amount of exon 7-containing survival motor neuron (SMN) protein [1]: effective at increasing | expression of SMN protein in spinal cord motor neurons ([2]; SMA-like mice): increased expression of SMN protein | symptoms ([2]; SMA-like mice): improved symptoms | birth rate of severe types of SMA-like mice ([2]; heterozygous knock-out transgenic SMA-like mice bred): decreased the birth rate
